Experimental data reported in article PMC3974725, “A Random Sequential Mechanism of Aminoglycoside Acetylation by Mycobacterium tuberculosis Eis Protein” (PLoS ONE, 2014).
Like-named read-outs stand apart in the source and are kept apart here.

Experiments:
MtEis [1] = target: T1, MtEis (Mycobacterium tuberculosis, UniProt P9WFK7); test: Steady-state acetyltransferase assays (DTNB, absorbance at 412 nm), bisubstrate kinetic analysis; assay type: biochemical
MtEis [2] = target: T1, MtEis; settings: cited from earlier work

T1 sequence (P9WFK7 whole entry, looked up): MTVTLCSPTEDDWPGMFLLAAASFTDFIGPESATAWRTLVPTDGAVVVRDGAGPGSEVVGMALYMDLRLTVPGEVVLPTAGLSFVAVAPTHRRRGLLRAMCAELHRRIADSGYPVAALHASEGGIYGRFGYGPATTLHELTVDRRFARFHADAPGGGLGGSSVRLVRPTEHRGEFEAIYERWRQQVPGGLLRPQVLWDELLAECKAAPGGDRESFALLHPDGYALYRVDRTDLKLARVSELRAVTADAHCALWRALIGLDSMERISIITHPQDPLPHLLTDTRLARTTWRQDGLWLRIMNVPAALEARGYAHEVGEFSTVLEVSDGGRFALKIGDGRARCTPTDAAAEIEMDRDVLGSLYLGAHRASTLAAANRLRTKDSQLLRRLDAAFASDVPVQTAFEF

Compound | K d,AcCoA(E) lower than that for AcCoA binding to Eis from M. smegmatis (MtEis [1]; MtEis versus M. smegmatis Eis value of ref 6) | Kd (MtEis [1]; binding of AcCoA to free MtEis, read-out: K d,AcCoA(E)) | Kd (MtEis [1]; binding of AcCoA to the KAN bound enzyme, read-out: K d,AcCoA(AG•E)) | Kd (MtEis [1]; binding of AcCoA to the NEO bound enzyme, read-out: K d,AcCoA(AG•E)) | higher affinity for the AcCoA bound enzyme than KAN (MtEis [1]; NEO versus KAN, K d,AG(AcCoA•E)) | Kd (MtEis [1]; binding of AG to free enzyme, from thermodynamic cycle K d,AcCoA(E) K d,AG(AcCoA•E)/K d,AcCoA(AG•E), read-out: K d,AG(E)) | Kd (MtEis [1]; binding of AG to the AcCoA bound enzyme, simultaneous fit of KAN and NEO acetylation data, read-out: K d,AG(AcCoA•E)) | extent of acetylation by MtEis (MtEis [2]) | k cat (microscopic rate constant of the acetylation step) (MtEis [1]; AG as substrate of MtEis, random sequential mechanism fit, Tris 50 mM, pH 8.0)
CC(=O)SCCNC(=O)CCNC(=O)[C@H](O)C(C)(C)COP(=O)(O)OP(=O)(O)OC[C@H]1O[C@@H](n2cnc3c(N)ncnc32)[C@H](O)[C@@H]1OP(=O)(O)O [AcCoA, acetyl coenzyme A] | about 4 fold | 18 ± 14 µM | 45 ± 37 µM | 111 ± 62 µM |  |  |  |  | 
NC[C@@H]1O[C@H](O[C@H]2[C@@H](O)[C@H](O[C@@H]3[C@@H](O)[C@H](N)C[C@H](N)[C@H]3O[C@H]3O[C@H](CN)[C@@H](O)[C@H](O)[C@H]3N)O[C@@H]2CO)[C@H](N)[C@@H](O)[C@@H]1O [NEO, neomycin B] |  |  |  |  | approximately 3 fold | 22 ± 17 µM | 135 ± 53 µM | tri-acetylated | 
kanamycin A |  |  |  |  |  |  |  | di-acetylated | 0.68 ± 0.15 s⁻¹
